Reference: US20250134875A1, “FORMULATIONS OF ALK-5 KINASE INHIBITORS AND USES THEREOF” (Thirona Bio, Inc., priority 2023, published 2025)
In brackets after ≈: the same amount, converted by molar mass.

Experiments:
profibrotic genes = test: Gene expression (RNA sequencing) in surgical incision-induced dermal fibrosis model; type: in vivo, Göttingen minipig
Method: Minipig skin is more similar to human skin than rodent skin, and dermal delivery of topical ALK-5 kinase inhibitor Compound 1 in minipigs is expected to be reflective of treatment of human skin. Therefore, a model of surgical incision-induced dermal fibrosis was established in minipigs and the effects of topical Compound 1 were evaluated by visual assessment, histologic examination and gene expression by RNA sequencing.
The study was conducted in 4 female Göttingen SPF minipigs. On Day 1, eight full thickness incisional wounds, four on each side, were performed on each animal. Compound 1 0% (Vehicle), 0.1%, 0.3% or 1% was applied topically twice daily for 14 days from Day 7 through Day 20 on each incision. All animals received a dose volume of 160 μl per wound ([…] applied to a 32 cm2 area surrounding each incision). Clinical signs, visual observations of incisions, body weight and food consumption were recorded during the in-life period. At necropsy (Day 21) two biopsies were collected from each incision for histopathology and gene expression analysis.
For gene expression analysis, a 0.3 cm punch biopsy was collected from the incisional wounds. Samples were collected and stored overnight in prefilled tubes containing RNAlater at 5±3° C., and then transferred to a freezer and stored at ˜−20° C. The biopsies collected were then thawed and subjected to RNA purification and then generation of mRNA-enriched cDNA libraries for Illumina sequencing. RNA sequencing was performed to a depth of ˜15 million reads followed by bioinformatic analysis, including differential gene expression analysis.

[1] = Solubility assessment in solvent and excipient systems (formulated systems); type: physicochemical; details: 25° C.
Text: Table 5 provides the solubility of Compound 1 in various solvents and excipient systems to analyze the topical systems to be utilized with the formulations.

[2] = Stability studies (storage and forced degradation); type: physicochemical
Method: The physical solubility of the formulation is an important factor in the development of the formulation.
The active ingredient, Compound 1, is very stable, and has known stability of greater than 5 years.
The stability studies were also conducted by storing the samples under the conditions of accelerated degradation (40° C./75% RH). The stress conditions and the resulting stability of the formulation is provided below.

[3] = Solubility of Compound 1 in solvents; type: physicochemical
Text: Tables 2 and 3 provide the solubility of the exemplary ALK-5 kinase inhibitor Compound 1 in various solvents.

[4] = Excipient compatibility / stability study (HPLC, 2 weeks); type: physicochemical; details: for Loss of Compound 1 on storage / Stability conclusion: 2 weeks; for Stability conclusion: RT, 40 and 50° C.
Method: Stability studies were conducted to evaluate compatibility and stability of Compound 1 with some of the excipients included in the solubility experiments. The stability was assessed using the validated API HPLC method after storage at room temperature (RT), 40° C. and 50° C. for 2 weeks. The summary of the data generated from these experiments is provided below in Table 6 below.

[5] = topical 0.1%, 0.3% or 1% twice daily Day 7-20, biopsy Day 21

Max solubility of Compound 1 ([1]; Aqueous Gels, aqueous component 10-30% w/w): 1-2.7%/w
Max solubility of Compound 1 ([1]; Creams & Lotions, aqueous component 30-40% w/w): 1-1.5%/w
Max solubility of Compound 1 ([1]; Non-Aqueous Gels & Film forming solutions, aqueous component 0.0% w/w): 3-3.5%/w
Known stability of the active ingredient [2]: greater than 5 years
solubility ([3]; Cycolmethicone NF, oil or lipid): 190 µg/mL (≈ 0.62 mM)
solubility ([3]; DMSO, organic solvent or mixture): 83700 µg/mL (≈ 273 mM)
solubility ([3]; Dimethicone 100 CST, oil or lipid): 110 µg/mL (≈ 0.359 mM)
solubility ([3]; PEG 400, organic solvent or mixture): 43900 µg/mL (≈ 143 mM)
solubility ([3]; PPG-15 stearyl ether, oil or lipid): 4870 µg/mL (≈ 15.9 mM)
solubility ([3]; Transcutol (DEGEE), organic solvent or mixture): 115000 µg/mL (≈ 376 mM)
solubility ([3]; acetone, organic solvent or mixture): 38300 µg/mL (≈ 125 mM)
solubility ([3]; benzyl alcohol, organic solvent or mixture): > 300000 µg/mL
solubility ([3]; diethyl sebacate, oil or lipid): 13100 µg/mL (≈ 42.6 mM)
solubility ([3]; diisopropyl adipate, oil or lipid): 50500 µg/mL (≈ 165 mM)
solubility ([3]; ethanol, organic solvent or mixture): 30800 µg/mL (≈ 101 mM)
solubility ([3]; hexylene glycol, organic solvent or mixture): 50200 µg/mL (≈ 164 mM)
solubility ([3]; isopropyl myristate, oil or lipid): 3450 µg/mL (≈ 11.3 mM)
solubility ([3]; medium chain triglycerides, oil or lipid): 5310 µg/mL (≈ 17.3 mM)
solubility ([3]; mineral oil, oil or lipid): 540 µg/mL (≈ 1.76 mM)
solubility ([3]; octyldodecanol, oil or lipid): 5370 µg/mL (≈ 17.5 mM)
solubility ([3]; organic solvent or mixture, Propylene Glycol (PG)): 23700 µg/mL (≈ 77.4 mM)
solubility ([3]; phenethyl alcohol, organic solvent or mixture): > 300000 µg/mL
solubility ([3]; phosphate buffer, pH 6.5, aqueous buffer): 20 µg/mL (≈ 0.0653 mM)
solubility ([3]; propylene carbonate, organic solvent or mixture): 24100 µg/mL (≈ 78.7 mM)
solubility ([3]; sodium citrate buffer, pH 3, aqueous buffer, Sod.Citrate buffer (pH3)): 2190 µg/mL (≈ 7.15 mM)
solubility ([3]; sodium citrate buffer, pH 4, aqueous buffer, Sod.Citrate buffer (pH4)): 290 µg/mL (≈ 0.946 mM)
solubility ([3]; sodium citrate buffer, pH 5, aqueous buffer, Sod.Citrate buffer (pH5)): 70 µg/mL (≈ 0.228 mM)
solubility ([3]; water): 20 µg/mL (≈ 0.0653 mM)
Loss of Compound 1 on storage ([4]; Benzyl Alcohol +0.1% BHT, 40° C.): No Loss
Loss of Compound 1 on storage ([4]; Benzyl Alcohol +0.1% BHT, 50° C.): No Loss
Loss of Compound 1 on storage ([4]; Benzyl Alcohol +0.1% BHT, RT storage): No Loss
Stability conclusion ([4]; Benzyl Alcohol +0.1% BHT): STABLE AT ALL
Loss of Compound 1 on storage ([4]; Benzyl Alcohol, 40° C.): No Loss
Loss of Compound 1 on storage ([4]; Benzyl Alcohol, 50° C.): No Loss
Loss of Compound 1 on storage ([4]; Benzyl Alcohol, RT storage): No Loss
Stability conclusion ([4]; Benzyl Alcohol): STABLE AT ALL
Loss of Compound 1 on storage ([4]; Diethyl Sebacate, 40° C.): 3-4% loss
Loss of Compound 1 on storage ([4]; Diethyl Sebacate, 50° C.): 6% loss
Loss of Compound 1 on storage ([4]; Diethyl Sebacate, RT storage): No Loss
Stability conclusion ([4]; Diethyl Sebacate): Some Instability
Loss of Compound 1 on storage ([4]; PEG 400 + 0.1% BHT, 40° C.): No Loss
Loss of Compound 1 on storage ([4]; PEG 400 + 0.1% BHT, 50° C.): No Loss
Loss of Compound 1 on storage ([4]; PEG 400 + 0.1% BHT, RT storage): No Loss
Loss of Compound 1 on storage ([4]; PEG 400, 40° C.): 10% loss
Loss of Compound 1 on storage ([4]; PEG 400, 50° C.): ~28% loss
Loss of Compound 1 on storage ([4]; PEG 400, RT storage): No Loss
Stability conclusion ([4]; PEG 400): Unstable at > RT
Loss of Compound 1 on storage ([4]; Phenoxyethanol +0.1% BHT, 40° C.): No Loss
Loss of Compound 1 on storage ([4]; Phenoxyethanol +0.1% BHT, 50° C.): No Loss
Loss of Compound 1 on storage ([4]; Phenoxyethanol +0.1% BHT, RT storage): No Loss
Stability conclusion ([4]; Phenoxyethanol +0.1% BHT): STABLE AT ALL
Loss of Compound 1 on storage ([4]; Phenoxyethanol, 40° C.): No Loss
Loss of Compound 1 on storage ([4]; Phenoxyethanol, 50° C.): No Loss
Loss of Compound 1 on storage ([4]; Phenoxyethanol, RT storage): No Loss
Stability conclusion ([4]; Phenoxyethanol): STABLE AT ALL
Loss of Compound 1 on storage ([4]; Propylene Glycol, 40° C.): No Loss
Loss of Compound 1 on storage ([4]; Propylene Glycol, 50° C.): No Loss
Loss of Compound 1 on storage ([4]; Propylene Glycol, RT storage): No Loss
Stability conclusion ([4]; Propylene Glycol): STABLE AT ALL
Loss of Compound 1 on storage ([4]; Transcutol (DEGEE) +0.1% BHT, 40° C.): No Loss
Loss of Compound 1 on storage ([4]; Transcutol (DEGEE) +0.1% BHT, 50° C.): No Loss
Loss of Compound 1 on storage ([4]; Transcutol (DEGEE) +0.1% BHT, RT storage): No Loss
Stability conclusion ([4]; Transcutol (DEGEE) +0.1% BHT): STABLE AT ALL
Loss of Compound 1 on storage ([4]; Transcutol (DEGEE), 40° C.): No Loss
Loss of Compound 1 on storage ([4]; Transcutol (DEGEE), 50° C.): No Loss
Loss of Compound 1 on storage ([4]; Transcutol (DEGEE), RT storage): No Loss
Stability conclusion ([4]; Transcutol (DEGEE)): STABLE AT ALL
Loss of Compound 1 on storage ([4]; pH 3 Citrate buffer, 40° C.): No Loss
Loss of Compound 1 on storage ([4]; pH 3 Citrate buffer, 50° C.): No Loss
Loss of Compound 1 on storage ([4]; pH 3 Citrate buffer, RT storage): No Loss
Stability conclusion ([4]; pH 3 Citrate buffer): STABLE AT ALL
Loss of Compound 1 on storage ([4]; pH4 Citrate buffer, 40° C.): No Loss
Loss of Compound 1 on storage ([4]; pH4 Citrate buffer, 50° C.): No Loss
Loss of Compound 1 on storage ([4]; pH4 Citrate buffer, RT storage): No Loss
Stability conclusion ([4]; pH4 Citrate buffer): STABLE AT ALL
Loss of Compound 1 on storage ([4]; pH5 Citrate buffer, 40° C.): No Loss
Loss of Compound 1 on storage ([4]; pH5 Citrate buffer, 50° C.): No Loss
Loss of Compound 1 on storage ([4]; pH5 Citrate buffer, RT storage): No Loss
Stability conclusion ([4]; pH5 Citrate buffer): STABLE AT ALL
Structure (SMILES): Cc1cccc(-n2ncc(C)c2-c2cc3cnccc3s2)n1 [Compound 1]
Gene expression of the profibrotic genes investigated (profibrotic genes; FIG. 7): consistent tendency to dose-dependently reduce gene expression
Change in gene expression, ADAM12 (profibrotic genes; [5]): −52%
Change in gene expression, ADAMTS14 (profibrotic genes; [5]): −52%
Change in gene expression, BMP1 (profibrotic genes; [5]): −47%
Change in gene expression, COL1A1 (profibrotic genes; [5]): −49%
Change in gene expression, COL1A2 (profibrotic genes; [5]): −48%
Change in gene expression, COL3A1 (profibrotic genes; [5]): −49%
Change in gene expression, MMP2 (profibrotic genes; [5]): −52%
Change in gene expression, MMP9 (profibrotic genes; [5]): −54%
Change in gene expression, MMP14 (profibrotic genes; [5]): −42%
Change in gene expression, TGF-β1 (profibrotic genes; [5]): up to −23%
Change in gene expression, TGF-β2 (profibrotic genes; [5]): ≤ −32%
Change in gene expression, TGF-β3 (profibrotic genes; [5]): ≤ −49%
Change in gene expression, THBS4 (profibrotic genes; [5]): −67%
Change in gene expression, TIMP1 (profibrotic genes; [5]): −17%
Change in gene expression, TIMP2 (profibrotic genes; [5]): −46%
Stability of Compound 1 with excipients (summary) ([4]; solubility and compatibility experiments): relatively stable except with PEG400 and Diethyl Sebacate
